What was measured:
S1P1 [1] = biological target: T1, S1P1 (Homo sapiens, UniProt P21453); assay: Tango β-arrestin Recruitment Assay in HEK293 cells (Assay 2a); assay type: cell-based; design: linker with TEV protease (N1a) cleavage site (C); host or cells: HEK293, transiently transfected
From the text: For the Tango™ β-arrestin recruitment assay, the cytoplasmic C-terminus of S1P1 is tethered to the tTA transcriptional activator with a linker that contains a cleavage site for the N1a protease from tobacco etch virus (TEV protease). The C-terminus of the human β-arrestin2 protein is fused to TEV protease. Binding of an agonist recruits the β-arrestin-TEV fusion protein to the receptor resulting in cleavage of the linker and release of tTA to enter the nucleus and subsequently activate a tTA-dependent luciferase reporter gene.
Frozen HEK293 cells transiently transfected with receptor cDNAs for S1P1 (Invitrogen) were thawed and suspended in 10 mL of Pro293a-CDM culture medium (Invitrogen) supplemented with 4 mM L-Glutamine (Invitrogen), 1× Pen/Strep (100 units/mL penicillin and 100 μg/mL streptomycin, Invitrogen) and 0.1% fatty acid free BSA (Sigma-Aldrich). Cells were added to the wells of a 384-well white opaque bottom assay plate (PerkinElmer) at 3,000-6,000 cells per well and the plate was incubated for approximately 4 h in a 37° C. incubator. Test compounds were tested at maximum concentrations of 10 μM for the agonist assays. Compounds were diluted in DMSO (10 concentration points, 3-fold each) and added to the assay plate at a 1% final DMSO concentration. For each compound, there were duplicate assay plates and each assay plate had duplicate wells per concentration point. The plate was incubated at 37° C. for 30 min. The efficacy control was 5 μM S1P (Avanti). Following agonist addition, the assay plates were incubated in a 37° C. incubator for 16-18 h. Luciferase assay reagent was added and luminescence measured in an EnVision plate reader (PerkinElmer). To determine agonist activity, percent activity was calculated as [(test compound−background)/(positive control−background)* 100], where background is the luminescence of the DMSO alone control and the positive control is the luminescence from cells incubated with the efficacy control 5 μM S1P. The percent activities were plotted against compound concentration to determine EC50 using XLFit (IDBS).
Assay 1 is the CNG cAMP Assay as described in Biological Example 1. Assay 2a and 2b are the Tango™ β-arrestin Recruitment Assay in HEK293 and U2OS cells, respectively, as described in Biological Example 2. Assay 3a is the hS1P1R GTPγS Binding Assay as described in Biological Example 3. Assay 3b is the GTP-Eu Binding Assay as described in Biological Example 3. EC50's were measured unless otherwise noted. […] In the table, “nt” means the Compound was not tested and “no” means the compound was tested but had no measurable activity under the assay conditions employed.
Target sequence in this assay (P21453 whole entry, the tested form may be a part): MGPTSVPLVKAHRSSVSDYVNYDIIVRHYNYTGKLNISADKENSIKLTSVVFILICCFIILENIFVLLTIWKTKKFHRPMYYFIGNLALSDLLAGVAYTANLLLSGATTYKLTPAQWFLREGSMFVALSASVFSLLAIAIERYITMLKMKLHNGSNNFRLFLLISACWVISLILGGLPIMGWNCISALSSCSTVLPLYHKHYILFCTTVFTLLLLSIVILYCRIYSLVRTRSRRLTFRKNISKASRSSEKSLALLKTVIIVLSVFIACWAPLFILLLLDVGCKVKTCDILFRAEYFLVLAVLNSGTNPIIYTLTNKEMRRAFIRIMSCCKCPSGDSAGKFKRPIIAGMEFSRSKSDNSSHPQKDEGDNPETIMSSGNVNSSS
Target sequence in this assay (P32121 whole entry partner, the tested form may be a part): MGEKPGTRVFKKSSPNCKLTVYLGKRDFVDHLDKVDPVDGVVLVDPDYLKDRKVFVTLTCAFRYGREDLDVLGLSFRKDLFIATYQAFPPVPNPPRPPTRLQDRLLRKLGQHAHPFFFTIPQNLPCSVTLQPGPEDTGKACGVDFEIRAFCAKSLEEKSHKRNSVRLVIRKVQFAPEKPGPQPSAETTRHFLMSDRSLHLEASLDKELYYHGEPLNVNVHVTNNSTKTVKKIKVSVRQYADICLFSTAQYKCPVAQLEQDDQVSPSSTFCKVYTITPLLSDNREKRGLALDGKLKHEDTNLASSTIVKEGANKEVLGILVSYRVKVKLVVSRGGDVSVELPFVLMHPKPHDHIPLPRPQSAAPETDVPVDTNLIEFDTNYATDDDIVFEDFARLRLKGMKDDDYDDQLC

S1P1 [2] = biological target: T1, S1P1; assay: CNG cAMP Assay (Assay 1); assay type: cell-based; design: host or cells: HEK293 cells expressing the CNG channel; conditions: read-out: Assay 1 EC50
Summary of the method: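 cAMP-gated CNG membrane-potential read-out (350/590 nm, T90/T0 ratio) in S1P1/CNG HEK293 cells after 90 min with compound plus NECA 500 nM, S1P 10 nM (EC95), Ro 20-1724 25 μM. Ten 3-fold points from 10 μM, 1.8% DMSO; percent activity vs NECA-only control gives EC50.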
Target sequence in this assay (P21453 whole entry, the tested form may be a part): as the sequence (P21453 whole entry, the tested form may be a part) above

[3] = Tango β-arrestin Recruitment Assay, read-out: Assay 2a EC50
[4] = Tango β-arrestin, footnote 1: Relative EC50 was measured, read-out: Assay 2a Relative EC50

| SMILES | EC50 (S1P1 [1]; [3]) [nM] | EC50 (S1P1 [2]) [nM] | EC50 (S1P1 [1]; [4]) [nM] |
| --- | --- | --- | --- |
| Cc1ccc(Oc2cc(Cl)c3nc(-c4nc(-c5cc(F)c(CCC(=O)O)cc5Cl)no4)cn3c2)cc1 [Entry 67] | ≤ 100 | – | – |
| Fc1cccc(F)c1-c1noc(-c2cn3cc(C(F)(F)F)cc(Cl)c3n2)n1 [Example 141, 8-chloro-2-[3-(2,6-difluorophenyl)-1,2,4-oxadiazol-5-yl]-6-(trifluoromethyl)imidazo[1,2-a]pyridine] | 100 to 500 | 500 to 1000 | – |
| Cc1cc(CC(C)C(=O)O)ccc1-c1noc(-c2cn3cc(C(F)(F)F)cc(Br)c3n2)n1 (stereo not shown) [Example 173, 3-(4-{5-[8-bromo-6-(trifluoromethyl)imidazo[1,2-a]pyridin-2-yl]-1,2,4-oxadiazol-3-yl}-3-methylphenyl)-2-methylpropanoic acid] | 100 to 500 | ≤ 100 | – |
| O=C(O)CN1CCC(Oc2cc(Cl)c(-c3noc(-c4cn5cc(C(F)(F)F)cc(Cl)c5n4)n3)cc2F)C1 (stereo not shown) [Example 92, {3-[(5-chloro-4-{5-[8-chloro-6-(trifluoromethyl)imidazo[1,2-a]pyridin-2-yl]-1,2,4-oxadiazol-3-yl}-2-fluorophenyl)oxy]pyrrolidin-1-yl}acetic acid] | ≤ 100 | ≤ 100 | – |
| O=C(O)CCc1ccc(-c2nc(-c3cn4cc(C(F)(F)F)cc(Cl)c4n3)no2)cc1Cl [Example 235, 3-(2-chloro-4-{3-[8-chloro-6-(trifluoromethyl)imidazo[1,2-a]pyridin-2-yl]-1,2,4-oxadiazol-5-yl}phenyl)propanoic acid] | 100 to 500 | ≤ 100 | – |
| Cc1ccccc1-c1noc(-c2cn3cc(C(F)(F)F)cc(Cl)c3n2)n1 [Example 150, 8-chloro-2-[3-(2-methylphenyl)-1,2,4-oxadiazol-5-yl]-6-(trifluoromethyl)imidazo[1,2-a]pyridine] | 100 to 500 | ≤ 100 | – |
| COCCOc1cc(Cl)c(-c2noc(-c3cn4cc(C(F)(F)F)cc(Cl)c4n3)n2)cc1Cl [Entry 76] | ≤ 100 | – | – |
| CC(=O)OCCOc1c(Cl)cc(-c2noc(-c3cn4cc(C(F)(F)F)cc(Cl)c4n3)n2)cc1Cl [Example 279, 2-[(2,6-dichloro-4-{5-[8-chloro-6-(trifluoromethyl)imidazo[1,2-a]pyridin-2-yl]-1,2,4-oxadiazol-3-yl}phenyl)oxy]ethyl acetate] | 100 to 500 | – | – |
| OCCNCc1cc(Cl)c(-c2noc(-c3cn4cc(C(F)(F)F)cc(Cl)c4n3)n2)cc1Cl [Example 138, 2-{[(2,5-dichloro-4-{5-[8-chloro-6-(trifluoromethyl)imidazo[1,2-a]pyridin-2-yl]-1,2,4-oxadiazol-3-yl}phenyl)methyl]amino}ethanol] | – | – | 100 to 500 |
| O=C(O)C(O)COc1cc(Cl)c(-c2noc(-c3cn4cc(C(F)(F)F)cc(Cl)c4n3)n2)cc1Cl (stereo not shown) [Entry 58] | ≤ 100 | – | – |
| OC(CF)COc1cc(Cl)c(-c2noc(-c3cn4cc(C(F)(F)F)cc(Br)c4n3)n2)cc1Cl (stereo not shown) [Example 110, 1-[(4-{5-[8-bromo-6-(trifluoromethyl)imidazo[1,2-a]pyridin-2-yl]-1,2,4-oxadiazol-3-yl}-2,5-dichlorophenyl)oxy]-3-fluoropropan-2-ol] | ≤ 100 | – | – |
| O=C(O)CCc1cc(Cl)c(-c2noc(-c3cn4cc(Br)cc(Br)c4n3)n2)cc1F [Entry 71] | ≤ 100 | – | – |
| CC(Cc1cc(Cl)c(-c2nc(-c3cn4cc(C(F)(F)F)cc(Cl)c4n3)no2)cc1Cl)C(=O)O (stereo not shown) [Example 241, 3-(2,5-dichloro-4-{3-[8-chloro-6-(trifluoromethyl)imidazo[1,2-a]pyridin-2-yl]-1,2,4-oxadiazol-5-yl}phenyl)-2-methylpropanoic acid] | ≤ 100 | – | – |
| CC(O)COc1c(Cl)cc(-c2noc(-c3cn4cc(C(F)(F)F)cc(Cl)c4n3)n2)cc1Cl (stereo not shown) [Example 104, 1-[(2,6-dichloro-4-{5-[8-chloro-6-(trifluoromethyl)imidazo[1,2-a]pyridin-2-yl]-1,2,4-oxadiazol-3-yl}phenyl)oxy]propan-2-ol] | ≤ 100 | – | – |
| OCCOc1c(Cl)cc(-c2noc(-c3cn4cc(C(F)(F)F)cc(Cl)c4n3)n2)cc1Cl [Example 280, 2-[(2,6-dichloro-4-{5-[8-chloro-6-(trifluoromethyl)imidazo[1,2-a]pyridin-2-yl]-1,2,4-oxadiazol-3-yl}phenyl)oxy]ethanol] | ≤ 100 | – | – |
| CC(Cc1cc(Cl)c(-c2noc(-c3cn4cc(C(F)(F)F)cc(Br)c4n3)n2)cc1Cl)C(=O)O (stereo not shown) [Example 225, 3-(4-{5-[8-bromo-6-(trifluoromethyl)imidazo[1,2-a]pyridin-2-yl]-1,2,4-oxadiazol-3-yl}-2,5-dichlorophenyl)-2-methylpropanoic acid] | – | – | 100 to 500 |

Further lines, results first:

| EC50 (S1P1 [1]; [3]) [nM] | EC50 (S1P1 [2]) [nM] | EC50 (S1P1 [1]; [4]) [nM] | SMILES |
| --- | --- | --- | --- |
| 100 to 500 | ≤ 100 | – | O=C(O)/C=C/c1ccc(-c2noc(-c3cn4cc(C(F)(F)F)cc(Cl)c4n3)n2)c(Cl)c1 [Entry 3] |
| ≤ 100 | – | – | OCCNc1ccc(-c2noc(-c3cn4cc(C(F)(F)F)cc(Cl)c4n3)n2)c(Cl)c1 [Example 115, 2-[(3-chloro-4-{5-[8-chloro-6-(trifluoromethyl)imidazo[1,2-a]pyridin-2-yl]-1,2,4-oxadiazol-3-yl}phenyl)amino]ethanol] |
| ≤ 100 | ≤ 100 | – | CS(=O)(=O)NCc1ccc(-c2noc(-c3cn4cc(C(F)(F)F)cc(Cl)c4n3)n2)c(Cl)c1 [Example 136, N-[(3-chloro-4-{5-[8-chloro-6-(trifluoromethyl)imidazo[1,2-a]pyridin-2-yl]-1,2,4-oxadiazol-3-yl}phenyl)methyl]methanesulfonamide] |
| 100 to 500 | ≤ 100 | – | O=C(O)CCOc1ccc(-c2noc(-c3cn4cc(C(F)(F)F)cc(Cl)c4n3)n2)c(Cl)c1 [Example 255, 3-[(3-chloro-4-{5-[8-chloro-6-(trifluoromethyl)imidazo[1,2-a]pyridin-2-yl]-1,2,4-oxadiazol-3-yl}phenyl)oxy]propanoic acid] |
| 100 to 500 | ≤ 100 | – | Cc1cc(C(C)CC(=O)O)ccc1-c1noc(-c2cn3cc(C(F)(F)F)cc(Cl)c3n2)n1 (stereo not shown) [Example 181, 3-(4-{5-[8-chloro-6-(trifluoromethyl)imidazo[1,2-a]pyridin-2-yl]-1,2,4-oxadiazol-3-yl}-3-methylphenyl)butanoic acid] |
| 100 to 500 | ≤ 100 | – | CC(Cc1ccc(-c2noc(-c3cn4cc(C(F)(F)F)cc(Cl)c4n3)n2)c(Cl)c1)C(=O)O (stereo not shown) [Example 171, 3-(3-chloro-4-{5-[8-chloro-6-(trifluoromethyl)imidazo[1,2-a]pyridin-2-yl]-1,2,4-oxadiazol-3-yl}phenyl)-2-methylpropanoic acid] |
| ≤ 100 | ≤ 100 | – | Oc1cc(Cl)c(-c2noc(-c3cn4cc(C(F)(F)F)cc(Cl)c4n3)n2)cc1Cl [Example 191, 2,5-dichloro-4-{5-[8-chloro-6-(trifluoromethyl)imidazo[1,2-a]pyridin-2-yl]-1,2,4-oxadiazol-3-yl}phenol] |
| 500 to 1000 | 100 to 500 | – | Fc1ccc(-c2noc(-c3cn4cc(C(F)(F)F)cc(Cl)c4n3)n2)c(Cl)c1 [Example 274, 8-chloro-2-[3-(2-chloro-4-fluorophenyl)-1,2,4-oxadiazol-5-yl]-6-(trifluoromethyl)imidazo[1,2-a]pyridine] |
| – | – | 100 to 500 | CC(Cc1cc(Cl)c(-c2noc(-c3cn4cc(C(F)(F)F)cc(Cl)c4n3)n2)cc1Cl)C(=O)O (stereo not shown) [Example 190, 3-(2,5-dichloro-4-{5-[8-chloro-6-(trifluoromethyl)imidazo[1,2-a]pyridin-2-yl]-1,2,4-oxadiazol-3-yl}phenyl)-2-methylpropanoic acid] |
